Reference: patent US9237747B2, “Herbicidal compositions comprising 4-amino-3-chloro-5-fluoro-6-(4-chloro-2-fluoro-3-methoxyphenyl) pyridine-2-carboxylic acid or a derivative thereof and insecticides” (priority 2013, dated 2016)

Columns and labels:
SCPJU = experiment: Postemergence foliar-applied weed control, direct-seeded rice (greenhouse); type: in vivo, Schoenoplectus juncoides; details: 4.38 g ae/ha alone
Description: Seeds or nutlets of the desired test plant species were planted in a soil matrix prepared by mixing a loam or sandy loam soil (e.g., 28.6 percent silt, 18.8 percent clay, and 52.6 percent sand, with a pH of about 5.8 and an organic matter content of about 1.8 percent) and calcareous grit in an 80 to 20 ratio. The soil matrix was contained in plastic pots with a volume of 1 quart and a surface area of 83.6 square centimeters (cm^2). When required to ensure good germination and healthy plants, a fungicide treatment and/or other chemical or physical treatment was applied. The plants were grown for 8-22 days in a greenhouse with an approximate 14 hour (h) photoperiod which was maintained at about 29° C. during the day and 26° C. during the night. Nutrients (Peters Excel® 15-5-15 5-Ca 2-Mg and iron chelate) were applied in the irrigation solution as needed and water was added on a regular basis. […]
Treatment requirements were calculated based upon the rates being tested, the concentration of active ingredient or acid equivalent in the formulation, and a 12 milliliter (mL) application volume at a rate of 187 liters per hectare (L/ha).
For treatments comprised of formulated compounds, measured amounts of compounds were placed individually in 25 mL glass vials and diluted in a volume of 1.25% volume per volume (v/v) Agri-Dex® crop oil concentrate to obtain 12× stock solutions. […]

ECHCG = experiment: In-water applied weed control, transplanted paddy rice (greenhouse); type: in vivo, Echinochloa crus-galli; details: 8 g ae/ha alone
Protocol: Weed seeds or nutlets of the desired test plant species were planted in puddled soil (mud) prepared by mixing a shredded, non-sterilized mineral soil (50.5 percent silt, 25.5 percent clay, and 24 percent sand, with a pH of about 7.6 and an organic matter content of about 2.9 percent) and water at a 1:1 volumetric ratio. The prepared mud was dispensed in 365 mL aliquots into 16-ounce (oz.) non-perforated plastic pots with a surface area of 86.59 square centimeters (cm^2) leaving a headspace of 3 centimeters (cm) in each pot. Rice seeds were planted in Sun Gro MetroMix® 306 planting mixture, which typically has a pH of 6.0 to 6.8 and an organic matter content of about 30 percent, in plastic plug trays. Seedlings at the second or third leaf stage of growth were transplanted into 860 mL of mud contained in 32-oz. non-perforated plastic pots with a surface area of 86.59 cm^2 4 days prior to herbicide application. The paddy was created by filling the headspace of the pots with 2.5 to 3 cm of water. When required to ensure good germination and healthy plants, a fungicide treatment and/or other chemical or physical treatment was applied. The plants were grown for 4-22 days in a greenhouse with an approximate 14 h photoperiod which was maintained at about 29° C. during the day and about 26° C. during the night. Nutrients were added as Osmocote® (17:6:10, N:P:K+minor nutrients) at 2 grams (g) per 16-oz. pot and 4 g per 32-oz. pot. Water was added on a regular basis to maintain the paddy flood, and supplemental lighting was provided with overhead metal halide 1000-Watt lamps as necessary. The plants were employed for testing when they reached the first through fourth true leaf stage. […]
Treatment requirements for each compound or herbicidal component were calculated based upon the rates being tested, the concentration of active ingredient or acid equivalent in the formulation, an application volume of 2 mL per component per pot, and an application area of 86.59 cm^2 per pot.
For formulated compounds, a measured amount was placed in an individual 100 or 200 mL glass vial and was dissolved in a volume of 1.25% (v/v) AgriDex® crop oil concentrate to obtain application solutions. […]
The treated plants and control plants were placed in a greenhouse as described above and water was added as needed to maintain a paddy flood. After approximately 3 weeks the condition of the test plants as compared with that of the untreated plants was determined visually and scored on a scale of 0 to 100 percent where 0 corresponds to no injury or growth inhibition and 100 corresponds to complete kill. […]

For `COc1c(Cl)ccc(-c2nc(C(=O)OCc3ccccc3)c(Cl)c(N)c2F)c1F` [Compound A Benzyl Ester], the “Visual Weed Control (%) - 22 DAA SCPJU Obs” value (SCPJU) was 70% and the “Visual Weed Control (%) - 21 DAA ECHCG Obs” value (ECHCG) was 40%.
